Each structure is given as a SMILES string. In brackets after ≈: the same amount, converted by molar mass. Where two headings read alike, the source gives them in different places.

The source of these data is patent US20240246941A1, “SUBSTITUTED 4-(3-AMINOPROP-1-YL)AMINOQUINOLINE ANALOGS AS MODULATORS OF MELANOMA-ASSOCIATED ANTIGEN 11 UBIQUITIN LIGASE” (ST. JUDE CHILDREN'S RESEARCH HOSPITAL, INC., priority 2020, published 2024).

The target of data set [1] is interaction between GST-MAGEA11 MHD and FAM-PCF11_4 peptide (MAGE-A11:PCF11) (Homo sapiens (Human), UniProt P43364). As to the kind of experiment: TR-FRET dose response competition assay for disruption of MAGE-A11:PCF11 binding. In outline:
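Competition TR-FRET at room temperature in 50 mM Tris pH 7.5, 20 mM MgCl2, 0.1 mg/ml BSA, 1 mM DTT: final 5 nM GST-MAGEA11 MHD, 5 nM Tb-anti-GST, 200 nM FAM-PCF11_4, 90 min. Ratio 520/490 nm converted to % inhibition; IC50 from sigmoidal fit.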

A short description of data set [2]: Solubility assay (μSOL Evolution, UV). The following applies: 18 h at RT in buffer; for solubility at 18 h: aqueous buffer, kinetic from dmso stock. The format is physicochemical. On the procedure:
Solubility assays were carried out on a Biomek FX lab automation workstation (Beckman Coulter, Inc., Fullerton, CA) using SOL Evolution software (pION Inc., Woburn, MA). The detailed method is described as follows. 10 μl of 10 mM compound stock (in DMSO) was added to 190 μl 1-propanol to make a reference stock plate. 5 μl from this reference stock plate were mixed with 70 μl 1-propanol and 75 μl citrate phosphate-buffered saline (PBS; isotonic) to make the reference plate, and the UV spectrum (250-500 nm) of the reference plate was read. 6 μl of 10 mM test compound stock was added to 594 μl buffer in a 96-well storage plate and mixed. The storage plate was sealed and incubated at RT for 18 h. The suspension was then filtered through a 96-well filter plate (pION Inc., Woburn, MA). 75 μl of filtrate was mixed with 75 μl 1-propanol to make the sample plate, and the UV spectrum of the sample plate was read. Calculations were carried out with μSOL Evolution software based on the area under the curve (AUC) of the UV spectrum of the sample and reference plates. All compounds were tested in triplicate.

The nature of data set [3]: High throughput Caco-2 permeability. The format is in vitro ADME. The following applies: human, 10 μmol/l, 2 h, 37° C. The method, then: (§1) High throughput Caco-2 permeability was performed in the TranswellR 0.4 μm polycarbonate membrane 96-well system with modified methods. Caco-2 cells were maintained at 37° C. in a humidified incubator with an atmosphere of 5% CO2. The cells were cultured in 75 cm^2 flasks with Dulbecco's Modified Eagle's Medium (DMEM) containing 10% (v/v) FBS, 1% (v/v) non-essential amino acids (NEAA), 100 units/ml of penicillin, and 100 μg/ml of streptomycin. The Caco-2 cells were seeded onto inserts at a density of 2×10^4 cells/insert separately. The medium in the wells was exchanged each other day, and the trans epithelial electrical resistance (TEER) value was measured using an epithelial voltohm meter (Millipore, Billerica, Massachusetts). […] For transport experiments, each cultured monolayer on the 96-well plate was washed twice with a transport buffer (HBSS containing 25 mM HEPES, pH 7.4). The permeability assay was initiated by the addition of each compound solution (10 μmol/l) into inserts (apical side, A) or receivers (basolateral side, B). The Caco-2 cell monolayers were incubated for 2 h at 37° C. Fractions were collected from receivers (if apical to basal permeability) or inserts (if basal to apical permeability), and concentrations were assessed by UPLC/MS (Waters; Milford, MA). All compounds were tested in triplicates. The A→B (or B→A) apparent permeability coefficients (Papp) of each compound were calculated using the equation, Papp=dQ/dt×1/AC0, where dQ/dt equals the flux of a drug across the monolayer, A equals the total insert well surface area, and C0 is the initial concentration of substrate in the donor compartment. The efflux ratio was determined by dividing the Papp in the B-A direction by the Papp in the A-B direction.
For orientation: Caco-2 cells form a polarised layer with tight junctions and transporters.

The test system of another data set is Caco-2 cell monolayers. In words: High throughput Caco-2 permeability. The format is in vitro ADME. The method, then:
as §1

Setting [4] is: read-out: IC50 by TR-FRET for disrupting MAGE-A11:PCF11 interaction.
Where [5] appears, read: Caco-2, pH 7.4, apical to basolateral, read-out: Caco-2 permeability, A/B.
Where [6] appears, read: Caco-2, pH 7.4, basolateral to apical, read-out: Caco-2 permeability, B/A.
[7] abbreviates: Table 6, 4-aminoquinoline compounds, read-out: TR-FRET, IC50.
[8] abbreviates: Table 8, representative compounds, read-out: TR-FRET IC50.

interaction between GST-MAGEA11 MHD and FAM-PCF11_4 peptide (MAGE-A11:PCF11), sequence (P43364 218-429): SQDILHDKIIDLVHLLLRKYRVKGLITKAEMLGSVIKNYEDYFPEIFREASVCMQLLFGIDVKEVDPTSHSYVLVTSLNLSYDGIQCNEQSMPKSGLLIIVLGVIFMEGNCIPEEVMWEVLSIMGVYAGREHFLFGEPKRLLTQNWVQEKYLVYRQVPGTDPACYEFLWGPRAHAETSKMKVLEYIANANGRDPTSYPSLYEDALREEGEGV

For `CC(C)(C)c1ccc(-c2ccc3c(NCCCNCc4ccco4)ccnc3c2)cc1` [SJ000311286-01], the half-maximal inhibitory concentration (IC50) in data set [1] (setting [4]) was found to be 1160 nM. Moreover, in data set [2], the “Solubility” value turned out to be 56.16 µM (≈ 23.2 µg/mL). The Papp at 2 h, 10 μmol/l in data set [3] (setting [5]) is 0.578 ×10⁻⁶ cm/s; in data set [3] (setting [6]), 0.12 ×10⁻⁶ cm/s.

As for `c1ccc2c(NCCCNCc3ccc4[nH]ccc4c3)ccnc2c1` [SJ001008066-01, N^1-((1H-Indol-5-yl)methyl)-N^3-(quinolin-4-yl)propane-1,3-diamine], the IC50 in data set [1] (setting [4]) stood at 130 nM. In addition, in data set [2], the “Solubility” value was 37.77 µM (≈ 12.5 µg/mL). Further, the Papp at 2 h, 10 μmol/l in data set [3] (setting [5]) worked out at 8.17 ×10⁻⁶ cm/s; in data set [3] (setting [6]), 8.09 ×10⁻⁶ cm/s. For the same compound, the “cell permeability” value in the data set with Caco-2 cell monolayers is recorded as “cell permeable”.

In the case of `FC(F)(F)c1ccc2c(NCCCNCc3ccc4c(c3)OCO4)ccnc2c1` [SJ000361106-02, N^1-(Benzo[d][1,3]dioxol-5-ylmethyl)-N^3-(7-(trifluoromethyl)quinolin-4-yl)propane-1,3-diamine], the values for the IC50 in data set [1] (setting [7]) and in data set [1] (setting [8]) were more than 74000 nM and 69900 nM, respectively. In addition, the solubility at 18 h in data set [2] was 129 µM (≈ 51.9 µg/mL). The Papp at 2 h, 10 μmol/l in data set [3] (setting [5]) is 47 ×10⁻⁶ cm/s; in data set [3] (setting [6]) it was 40 ×10⁻⁶ cm/s.

In the case of `CC(C)(C)c1ccc(-c2ccc3c(NCCCNCc4ccc5[nH]ccc5c4)ccnc3c2)cc1` [SJ001008068-01, N^1-((1H-Indol-5-yl)methyl)-N^3-(7-(4-(tert-butyl)phenyl)quinolin-4-yl)propane-1,3-diamine], the IC50 in data set [1] (setting [7]) came out at 130 nM. Further, in data set [2], the concentration in solution (solubility at 18 h) came to 0.67 µM (≈ 0.31 µg/mL). Besides, the Papp at 2 h, 10 μmol/l is 0.368 ×10⁻⁶ cm/s in data set [3] (setting [5]) and 1.54 ×10⁻⁶ cm/s in data set [3] (setting [6]).

For the compound `Clc1ccc2c(NCCCNCc3ccc4[nH]ccc4c3)ccnc2c1` [SJ000520909-03, N^1-((1H-Indol-5-yl)methyl)-N^3-(7-chloroquinolin-4-yl)propane-1,3-diamine], the IC50 in data set [1] (setting [7]) worked out at 240 nM; in data set [1] (setting [8]) it was 67100 nM. In data set [2], this compound gave a solubility at 18 h of 59.8 µM (≈ 21.8 µg/mL). Besides, the values for the Papp at 2 h, 10 μmol/l in data set [3] (setting [5]) and in data set [3] (setting [6]) were 19.6 ×10⁻⁶ cm/s and 21.3 ×10⁻⁶ cm/s, respectively.

Usually IC50 stands for the concentration that inhibits the measured activity by half. In general, Solubility refers to the dissolved amount per volume that the medium holds. What is called solubility is how much of the substance goes into solution per volume. The low end stands for a poorly soluble substance, the high end for a readily soluble substance.
